{"source": "patent US20070072885A1", "about": "“BICYCLIC DERIVATIVES FOR THE TREATMENT OF ABNORMAL CELL GROWTH” (Pfizer Inc, priority 2005, published 2007)", "origin": "cited, not measured here", "key": {"[1]": {"tested_on": "transplanted human mammary carcinoma which expresses epidermal growth factor receptor tyrosine kinase (EGFR)", "details": "EGFR-expressing carcinoma in athymic nude mice"}, "[2]": {"tested_on": "another carcinoma which does not express the EGF receptor"}}}
{"molecule": "O=CN/C=C/c1cc(O)ccc1O", "note": "[erbstatin]", "values": [{"measurement": "growth of transplanted human mammary carcinoma", "setting": "[1]", "result": "selectively attenuates the growth"}, {"measurement": "growth of another carcinoma", "setting": "[2]", "result": "without effect"}]}
